According to ChEMBL document CHEMBL1139777, “Discovery of a highly potent series of oxazole-based phosphodiesterase 4 inhibitors” (Bioorg Med Chem Lett, 2007):

Key:
[1] = molecular target: T1, 3',5'-cyclic-AMP phosphodiesterase 4B (Homo sapiens, UniProt Q07343); assay: Inhibition of PDE4B
[2] = Cmax in rat at 10 mg/kg, po; format: ADME, organism-based; design: dose 10 mg/kg, route oral; conditions: in vivo
Rattus norvegicus [3] = assay: Antiinflammatory activity in rat lipopolysaccharide-induced pulmonary inflammation model assessed as inhibition of polymorphonuclear cells at 1 mg/kg, po; format: functional
[4] = molecular target: Dual 3',5'-cyclic-AMP and -GMP phosphodiesterase 11A (Homo sapiens, UniProt Q9HCR9); assay: Inhibition of PDE11
Sequence of Dual 3',5'-cyclic-AMP and -GMP phosphodiesterase 11A (Q9HCR9 whole entry): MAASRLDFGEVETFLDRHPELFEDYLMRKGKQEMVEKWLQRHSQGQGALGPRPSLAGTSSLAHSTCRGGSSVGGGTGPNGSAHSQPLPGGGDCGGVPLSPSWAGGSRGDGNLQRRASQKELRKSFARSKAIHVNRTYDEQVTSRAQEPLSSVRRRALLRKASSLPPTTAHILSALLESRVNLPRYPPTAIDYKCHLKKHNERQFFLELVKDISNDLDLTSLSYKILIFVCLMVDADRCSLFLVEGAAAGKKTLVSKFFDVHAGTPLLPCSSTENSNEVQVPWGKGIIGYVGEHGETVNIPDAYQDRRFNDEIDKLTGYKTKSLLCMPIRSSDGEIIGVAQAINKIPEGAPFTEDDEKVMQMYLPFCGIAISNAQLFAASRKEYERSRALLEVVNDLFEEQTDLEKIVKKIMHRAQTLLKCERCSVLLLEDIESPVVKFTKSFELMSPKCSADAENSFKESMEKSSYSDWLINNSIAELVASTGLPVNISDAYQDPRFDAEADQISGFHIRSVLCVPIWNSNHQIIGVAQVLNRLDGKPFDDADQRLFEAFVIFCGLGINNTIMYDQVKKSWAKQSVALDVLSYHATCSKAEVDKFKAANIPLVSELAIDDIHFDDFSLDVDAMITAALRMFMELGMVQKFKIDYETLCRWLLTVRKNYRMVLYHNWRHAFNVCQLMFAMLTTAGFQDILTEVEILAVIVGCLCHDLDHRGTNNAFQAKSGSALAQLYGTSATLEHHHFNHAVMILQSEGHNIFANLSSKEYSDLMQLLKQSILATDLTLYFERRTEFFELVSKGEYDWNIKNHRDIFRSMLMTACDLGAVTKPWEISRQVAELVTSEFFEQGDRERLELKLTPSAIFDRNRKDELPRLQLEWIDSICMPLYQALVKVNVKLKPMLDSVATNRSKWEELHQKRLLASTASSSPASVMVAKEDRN

[5] = molecular target: cAMP and cAMP-inhibited cGMP 3',5'-cyclic phosphodiesterase 10A (Homo sapiens, UniProt Q9Y233); assay: Inhibition of PDE10
Sequence of cAMP and cAMP-inhibited cGMP 3',5'-cyclic phosphodiesterase 10A (Q9Y233 whole entry): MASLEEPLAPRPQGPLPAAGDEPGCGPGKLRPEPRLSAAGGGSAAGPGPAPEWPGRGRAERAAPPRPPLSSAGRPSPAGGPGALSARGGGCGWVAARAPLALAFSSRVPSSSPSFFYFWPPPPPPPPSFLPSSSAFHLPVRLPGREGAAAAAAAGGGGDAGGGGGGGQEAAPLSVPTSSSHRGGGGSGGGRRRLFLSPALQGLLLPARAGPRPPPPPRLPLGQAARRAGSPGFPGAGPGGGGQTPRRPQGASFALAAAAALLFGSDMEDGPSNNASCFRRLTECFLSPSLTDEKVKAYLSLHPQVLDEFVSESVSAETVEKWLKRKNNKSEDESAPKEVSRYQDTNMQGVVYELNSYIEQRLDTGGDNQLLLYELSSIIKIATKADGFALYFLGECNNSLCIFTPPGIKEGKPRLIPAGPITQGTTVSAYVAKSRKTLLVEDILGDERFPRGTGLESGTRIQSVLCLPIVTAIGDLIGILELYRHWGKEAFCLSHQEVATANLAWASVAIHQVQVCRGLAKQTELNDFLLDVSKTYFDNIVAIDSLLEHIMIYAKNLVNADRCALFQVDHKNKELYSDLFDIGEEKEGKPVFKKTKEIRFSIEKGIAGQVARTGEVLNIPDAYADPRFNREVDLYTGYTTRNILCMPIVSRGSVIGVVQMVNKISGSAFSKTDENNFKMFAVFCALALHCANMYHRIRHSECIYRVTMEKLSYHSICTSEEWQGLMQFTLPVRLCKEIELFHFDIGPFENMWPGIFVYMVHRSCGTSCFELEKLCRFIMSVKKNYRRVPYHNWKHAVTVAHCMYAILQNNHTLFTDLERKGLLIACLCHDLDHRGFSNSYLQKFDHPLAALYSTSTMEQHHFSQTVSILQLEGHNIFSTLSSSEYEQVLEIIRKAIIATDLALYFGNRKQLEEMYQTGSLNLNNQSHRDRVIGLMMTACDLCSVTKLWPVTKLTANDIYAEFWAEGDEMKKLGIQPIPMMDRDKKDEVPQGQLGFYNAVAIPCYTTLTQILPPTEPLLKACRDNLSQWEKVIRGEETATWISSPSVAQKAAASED

Homo sapiens [6] = species: Homo sapiens; assay: Selectivity for PDE4B over PDE11
Homo sapiens [7] = species: Homo sapiens; assay: Selectivity for PDE4B over PDE10
Rattus norvegicus [8] = assay: Antiinflammatory activity in po dosed rat lipopolysaccharide-induced pulmonary inflammation model assessed as inhibition of polymorphonuclear cells; format: functional
Rattus norvegicus [9] = assay: Antiinflammatory activity in rat lipopolysaccharide-induced pulmonary inflammation model assessed as inhibition of polymorphonuclear cells at 3 mg/kg, po; format: functional
[10] = molecular target: T1, 3',5'-cyclic-AMP phosphodiesterase 4B; assay: Inhibition of PDE4B at 1 uM
Cynomolgus monkey = assay: AUC in cynomolgus monkey at 30 mg/kg, po; format: ADME, organism-based, Macaca fascicularis, Plasma; design: dose 30 mg/kg, route oral; conditions: in vivo
[11] = Cmax in cynomolgus monkey at 30 mg/kg, po; format: ADME, organism-based, Macaca fascicularis; design: dose 30 mg/kg, route oral; conditions: in vivo

T1 sequence (Q07343 whole entry): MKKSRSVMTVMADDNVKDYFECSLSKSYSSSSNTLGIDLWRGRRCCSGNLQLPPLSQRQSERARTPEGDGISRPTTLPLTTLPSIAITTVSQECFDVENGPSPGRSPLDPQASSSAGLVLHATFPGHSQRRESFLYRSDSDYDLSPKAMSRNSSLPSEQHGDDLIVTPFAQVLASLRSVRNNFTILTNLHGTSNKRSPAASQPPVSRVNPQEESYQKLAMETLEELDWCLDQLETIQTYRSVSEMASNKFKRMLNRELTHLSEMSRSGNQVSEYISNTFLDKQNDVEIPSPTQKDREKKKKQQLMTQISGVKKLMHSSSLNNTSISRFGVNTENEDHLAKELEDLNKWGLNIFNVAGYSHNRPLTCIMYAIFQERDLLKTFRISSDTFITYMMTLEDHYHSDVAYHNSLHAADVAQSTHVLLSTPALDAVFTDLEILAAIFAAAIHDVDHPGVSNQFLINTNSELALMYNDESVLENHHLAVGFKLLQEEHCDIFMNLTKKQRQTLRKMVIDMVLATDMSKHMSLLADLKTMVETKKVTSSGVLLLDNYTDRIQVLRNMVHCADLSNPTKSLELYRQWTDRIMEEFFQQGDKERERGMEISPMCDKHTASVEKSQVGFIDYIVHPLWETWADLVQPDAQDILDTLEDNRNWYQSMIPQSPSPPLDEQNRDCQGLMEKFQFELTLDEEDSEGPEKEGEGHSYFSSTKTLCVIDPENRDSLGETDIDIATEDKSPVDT

| SMILES | IC50 [1] [nM] | IC50 [4] [nM] | IC50 [5] [nM] | further results |
| --- | --- | --- | --- | --- |
| COc1ccc(-c2nc(C=O)c(C)o2)c2ccc(C(F)(F)F)nc12 | 310 | – | – | – |
| COc1ccc(-c2nc(CO)c(C)o2)c2ccc(C(F)(F)F)nc12 | 470 | – | – | – |
| COc1ccc(-c2nc(C(=O)N3CCC3)c(CN)o2)c2ccc(C(F)(F)F)nc12 | 31 | – | – | – |
| COc1ccc(-c2nc(CN)c(C)o2)c2ccc(C(F)(F)F)nc12 | 80 | – | – | – |
| COc1ccc(-c2nc(C(=O)N3CCN(S(=O)(=O)N(C)C)CC3)c(CN)o2)c2ccc(C(F)(F)F)nc12 | 1.2 | 3300 | 1700 | Selectivity ratio (Homo sapiens [6]): 1000; Selectivity ratio (Homo sapiens [7]): 1000 |
| COc1ccc(-c2nc(C(=O)N3CCC(O)(c4ccccc4)CC3)c(CN)o2)c2ccc(C(F)(F)F)nc12 | 2 | 500 | 600 | Cmax [2]: 170 nM; ED50 (Rattus norvegicus [8]): 2 mg/kg |
| CCN(CC)C(=O)c1nc(-c2ccc(OC)c3nc(C(F)(F)F)ccc23)oc1CN | 62 | – | – | – |
| COc1ccc(-c2nc(C(N)=O)c(CN3CCCC3)o2)c2ccc(C(F)(F)F)nc12 | – | – | – | inhibition [10]: 31% |
| COc1ccc(-c2nc(CN)c(C(N)=O)o2)c2ccc(C(F)(F)F)nc12 | 76 | – | – | – |
| COc1ccc(-c2nc(C(N)=O)c(CNC3CCCC3)o2)c2ccc(C(F)(F)F)nc12 | – | – | – | inhibition [10]: 39% |
| COc1ccc(-c2nc(C(N)=O)c(C)o2)c2ccc(C(F)(F)F)nc12 | 88 | – | – | – |
| COc1ccc(-c2nc(C)co2)c2ccc(C(F)(F)F)nc12 | 350 | – | – | – |
| COc1ccc(-c2nc(C(=O)N3CCCCC3)c(CN)o2)c2ccc(C(F)(F)F)nc12 | 49 | – | – | – |
| COc1ccc(-c2nc(C(=O)N3CCN(C(=O)c4ccccn4)CC3)c(CN)o2)c2ccc(C(F)(F)F)nc12 | 1 | 2100 | 1900 | Cmax [2]: 730 nM; Selectivity ratio (Homo sapiens [6]): 1000; Selectivity ratio (Homo sapiens [7]): 1000; ED50 (Rattus norvegicus [8]): 0.6 mg/kg |
| CCN(CC)Cc1oc(-c2ccc(OC)c3nc(C(F)(F)F)ccc23)nc1C(N)=O | – | – | – | inhibition [10]: 21% |
| COc1ccc(-c2nc(C(=O)N3CCN(c4ncccn4)CC3)c(CN)o2)c2ccc(C(F)(F)F)nc12 | 19 | 2000 | 430 | AUC (Cynomolgus monkey): 130 µM·h; Cmax [2]: 9500 nM; Cmax [11]: 13000 nM; inhibition in vivo at 3 mg/kg (Rattus norvegicus [9]): 64% |
| COc1ccc(-c2nc(C(=O)N3CCN(C(=O)c4cc(C)[nH]n4)CC3)c(CN)o2)c2ccc(C(F)(F)F)nc12 | 0.5 | 1000 | 1500 | Selectivity ratio (Homo sapiens [6]): 1000; Selectivity ratio (Homo sapiens [7]): 1000 |
| COc1ccc(C(=O)Nc2c(Cl)cncc2Cl)c2ccc(C(F)(F)F)nc12 | 20 | 7300 | > 10000 | – |
| COc1ccc(-c2nc(C(N)=O)c(CN(C)C)o2)c2ccc(C(F)(F)F)nc12 | – | – | – | inhibition [10]: 40% |
| COc1ccc(-c2nc(C(N)=O)c(CN3CCCCC3)o2)c2ccc(C(F)(F)F)nc12 | – | – | – | inhibition [10]: 27% |

Now from value to compound, other results behind:

| IC50 [1] [nM] | IC50 [4] [nM] | IC50 [5] [nM] | SMILES | further results |
| --- | --- | --- | --- | --- |
| 1.6 | 1500 | 120 | CO/N=C(\c1ccccn1)C1CCN(C(=O)c2nc(-c3ccc(OC)c4nc(C(F)(F)F)ccc34)oc2CN)CC1 | Cmax [2]: 610 nM; inhibition in vivo at 1 mg/kg (Rattus norvegicus [3]): 45% |
| 60 | > 10000 | > 10000 | COc1ccc(C(=O)Nc2c(Cl)c[n+]([O-])cc2Cl)c2ccc(C(F)(F)F)nc12 [SCH-351591] | – |
| 1 | 130 | 20 | COc1ccc(-c2nc(C(=O)N3CCC4(CC3)C(=O)NCN4c3ccccc3)c(CN)o2)c2ccc(C(F)(F)F)nc12 | Selectivity ratio (Homo sapiens [6]): 130; Selectivity ratio (Homo sapiens [7]): 20 |
| 580 | – | – | CNCc1oc(-c2ccc(OC)c3nc(C(F)(F)F)ccc23)nc1C(N)=O | – |
| 470 | – | – | COc1ccc(-c2nc(CCl)c(C)o2)c2ccc(C(F)(F)F)nc12 | – |
| 110 | – | – | CNC(=O)c1nc(-c2ccc(OC)c3nc(C(F)(F)F)ccc23)oc1CN | – |
| 4.3 | 600 | 1100 | COc1ccc(-c2nc(C(=O)N3CCN(C(=O)OC(C)(C)C)CC3)c(CN)o2)c2ccc(C(F)(F)F)nc12 | Cmax [2]: 1400 nM; inhibition in vivo at 3 mg/kg (Rattus norvegicus [9]): 56% |
| 670 | – | – | CCc1coc(-c2ccc(OC)c3nc(C(F)(F)F)ccc23)n1 | – |
| 53 | – | – | COc1ccc(-c2nc(C(=O)O)c(CN)o2)c2ccc(C(F)(F)F)nc12 | – |
| 2.2 | 970 | 760 | COc1cc(OC)nc(N2CCN(C(=O)c3nc(-c4ccc(OC)c5nc(C(F)(F)F)ccc45)oc3CN)CC2)n1 | Cmax [2]: 230 nM; ED50 (Rattus norvegicus [8]): 2 mg/kg |
| 24 | 7600 | 2800 | COc1ccc(-c2nc(C(N)=O)c(CN)o2)c2ccc(C(F)(F)F)nc12 | – |
| 390 | – | – | COc1ccc(-c2nc(C(=O)O)c(C)o2)c2ccc(C(F)(F)F)nc12 | – |
| 1.4 | 820 | 130 | COc1ccc(-c2nc(C(=O)N3CC[C@@H](NC(=O)OC(C)(C)C)C3)c(CN)o2)c2ccc(C(F)(F)F)nc12 | Cmax [2]: 610 nM; ED50 (Rattus norvegicus [8]): 0.2 mg/kg |
| 17 | – | – | COc1ccc(-c2nc(C(=O)N3CCCC3)c(CN)o2)c2ccc(C(F)(F)F)nc12 | – |
